In patent publication US20090143279A1 (priority 2007, published 2009):
Like-named read-outs stand apart in the source and are kept apart here.

Legend:
[1] = system: cellular dehydrogenase activity
[2] = system: reactive oxygen species; type: cell-based, mouse
[3] = system: cytochrome c; type: cell-based, mouse
[4] = system: mitochondrial membrane potential; type: cell-based, mouse
[5] = system: C2C12 myotubes
[6] = system: mtOXPHOS transcripts; type: cell-based, mouse
[7] = system: nuOXPHOS transcripts; type: cell-based, mouse
[8] = system: OXPHOS gene expression; type: cell-based, mouse
[9] = composite Z-score vs mock-treated (DMSO) wells, Conc 20 μM
[10] = Conc 20 μM, normalized score vs mock-treated (DMSO) wells
[11] = 20 μM, composite Z-score vs DMSO
[12] = composite Z-score vs DMSO wells, Conc 20 μM
[13] = composite Z-score vs DMSO, Conc 20 μM
[14] = normalized composite Z-score vs mock-treated (DMSO) wells, Conc 20 μM

## COc1ccccc1/C=C/C(=O)O [coumarinic acid methyl ether]
[1]
  MTT (composite Z-score): −2.099
[2]
  ROS (composite Z-score): 0.917
[3]
  cyt c (composite Z-score): 0.170
[4]
  ΔΨm (composite Z-score): −1.070
[5]
  Viability (composite Z-score): −0.844
[6]
  mitoOX (composite Z-score): 0.383
[7]
  nucOX (composite Z-score): 0.031
[8]
  GE-HTS (composite Z-score): 0.143

## C=C1C(=O)O[C@H]2C[C@@H]1C(OC(C)=O)C/C(C)=C/CC/C(C)=C/CC[C@@]2(C)O (stereo partly shown) [crassin acetate]
[1]; [9]
  MTT: −1.220
[2]; [9]
  ROS: −1.394
[3]; [9]
  cyt c: −1.840
[4]; [9]
  ΔΨm: 0.374
[5]; [9]
  Viability: −2.757
[6]; [9]
  mitoOX: −0.703
[7]; [9]
  nucOX: −0.685
[8]; [9]
  GE-HTS: −0.720

## CC(C)(O)CC[C@@H](O)[C@](C)(O)[C@H]1CC[C@@]2(O)C3=CC(=O)[C@@H]4C[C@@H](O)[C@@H](O)C[C@]4(C)[C@H]3CC[C@]12C [crustecdysone]
[1]; [10]
  MTT (composite Z-score): −0.545
[2]; [10]
  ROS (composite Z-score): 0.657
[3]; [10]
  cyt c (composite Z-score): 0.468
[4]; [10]
  ΔΨm (composite Z-score): −0.721
[5]; [10]
  Viability (composite Z-score): −0.458
[6]; [10]
  mitoOX (composite Z-score): 0.062
[7]; [10]
  nucOX (composite Z-score): 0.487
[8]; [10]
  GE-HTS (composite Z-score): 0.354

## NC1(C(=O)O)CCCC1 [cycloleucine]
[1]; [11]
  MTT: −1.310
[2]; [11]
  ROS: 0.024
[3]; [11]
  cyt c: 0.822
[4]; [11]
  ΔΨm: −0.765
[5]; [11]
  Viability: −1.300
[6]; [11]
  mitoOX: −1.397
[7]; [11]
  nucOX: −0.495
[8]; [11]
  GE-HTS: −0.839

## CN(C)CCOC(=O)C(c1ccccc1)C1(O)CCCC1 (stereo not shown) [cyclopentolate]
[1]; [12]
  MTT: −0.756
[2]; [12]
  ROS: −0.406
[3]
  cyt c: 0.859
[3]; [12]
  cyt c: −0.283
[4]; [12]
  ΔΨm: −0.072
[5]; [12]
  Viability: −0.300
[6]; [12]
  mitoOX: −0.037
[7]; [12]
  nucOX: 0.830
[8]; [12]
  GE-HTS: 0.556

## CC(=O)C1=C(O)[C@@H]2[C@H]3c4c[nH]c5cccc(c45)C[C@H]3C(C)(C)N2C1=O [cyclopiazonic acid]
[1]; [13]
  MTT: −1.107
[2]; [13]
  ROS: −0.293
[3]; [13]
  cyt c: 0.033
[4]; [13]
  ΔΨm: 0.863
[5]; [13]
  Viability: −1.392
[6]; [13]
  mitoOX: 0.172
[7]; [13]
  nucOX: 0.163
[8]; [13]
  GE-HTS: 0.186

## CO[C@H]1C[C@H](O[C@H]2CC[C@]3(C=O)[C@H]4CC[C@]5(C)[C@@H](C6=CC(=O)OC6)CC[C@]5(O)[C@@H]4CC[C@]3(O)C2)O[C@H](C)[C@H]1O [cymarin]
[1]; [10]
  MTT (composite Z-score): −1.849
[2]; [10]
  ROS (composite Z-score): 0.695
[3]; [10]
  cyt c (composite Z-score): 0.356
[4]; [10]
  ΔΨm (composite Z-score): −0.996
[5]; [10]
  Viability (composite Z-score): −1.155
[6]; [10]
  mitoOX (composite Z-score): −0.464
[7]; [10]
  nucOX (composite Z-score): −0.412
[8]; [10]
  GE-HTS (composite Z-score): −0.473

## CC(=O)[C@@]1(O)CC[C@H]2[C@@H]3C=C(Cl)C4=CC(=O)[C@@H]5C[C@@H]5[C@]4(C)[C@H]3CC[C@@]21C [cyproterone]
[1]; [13]
  MTT: 0.079
[2]; [13]
  ROS: 1.155
[3]; [13]
  cyt c: 0.548
[4]; [13]
  ΔΨm: −0.962
[5]; [13]
  Viability: 0.014
[6]; [13]
  mitoOX: −0.446
[7]; [13]
  nucOX: −0.461
[8]; [13]
  GE-HTS: −0.490

## CC(=O)O[C@H]1C[C@@H](OC(C)=O)C(C)(C)C2CC(=O)[C@]3(C)C(CC[C@@]4(C)[C@H](C(=O)O)OC(=O)C5OC543)[C@]21C (stereo partly shown) [deacetoxy(7)-7-oxokhivorinic acid]
[1]; [14]
  MTT: −1.282
[2]; [14]
  ROS: 2.352
[3]; [14]
  cyt c: 0.816
[4]; [14]
  ΔΨm: −0.539
[5]; [14]
  Viability: −0.174
[6]; [14]
  mitoOX: −0.664
[7]; [14]
  nucOX: −0.937
[8]; [14]
  GE-HTS: −0.919

## CC1(C)C=CC(=O)[C@@]2(C)C1CC(=O)[C@]1(C)C2CC[C@@]2(C)[C@H](c3ccoc3)OC(=O)C3OC321 (stereo partly shown) [deacetoxy-7-oxisogedunin]
[1]; [10]
  MTT (composite Z-score): −0.791
[2]; [10]
  ROS (composite Z-score): 0.898
[3]; [10]
  cyt c (composite Z-score): 0.153
[4]; [10]
  ΔΨm (composite Z-score): 0.332
[5]; [10]
  Viability (composite Z-score): −0.301
[6]; [10]
  mitoOX (composite Z-score): 0.694
[7]; [10]
  nucOX (composite Z-score): 0.821
[8]; [10]
  GE-HTS (composite Z-score): 0.816

## CC1(C)C(=O)C=C[C@]2(C)[C@H]3CC[C@@]4(C)[C@H](c5ccoc5)OC(=O)[C@H]5O[C@]54[C@]3(C)C(=O)C[C@@H]12 [deacetoxy-7-oxogedunin]
[1]; [9]
  MTT: −0.029
[2]; [9]
  ROS: −0.301
[3]; [9]
  cyt c: 0.047
[4]; [9]
  ΔΨm: 1.322
[5]; [9]
  Viability: 0.089
[6]; [9]
  mitoOX: −0.632
[7]; [9]
  nucOX: −0.287
[8]; [9]
  GE-HTS: −0.407

## CC1(C)C(=O)C=C[C@]2(C)[C@H]3CC[C@@]4(C)[C@H](c5ccoc5)OC(=O)[C@H]5O[C@]54[C@]3(C)[C@H](O)C[C@@H]12 [deacetylgedunin]
[1]; [9]
  MTT: −0.958
[2]; [9]
  ROS: −0.966
[3]; [9]
  cyt c: −0.489
[4]; [9]
  ΔΨm: 0.349
[5]; [9]
  Viability: −0.032
[6]; [9]
  mitoOX: −0.484
[7]; [9]
  nucOX: −0.244
[8]; [9]
  GE-HTS: −0.322
